This note sets out measurements from patent US12643910B2, “Substituted pyrazolo[3,4-b]pyridines as ectonucleotide pyrophosphatase/phosphodiesterase 1 (ENPP1) modulators” (SANFORD BURNHAM PREBYS MEDICAL DISCOVERY INSTITUTE, priority 2019, dated 2026).

SMILES strings stand for the structures.

Assay [1] concerns the target T1, human ENPP1 (Homo sapiens, UniProt P22413).
T1 construct: made in house
T1 sequence (P22413 1-925): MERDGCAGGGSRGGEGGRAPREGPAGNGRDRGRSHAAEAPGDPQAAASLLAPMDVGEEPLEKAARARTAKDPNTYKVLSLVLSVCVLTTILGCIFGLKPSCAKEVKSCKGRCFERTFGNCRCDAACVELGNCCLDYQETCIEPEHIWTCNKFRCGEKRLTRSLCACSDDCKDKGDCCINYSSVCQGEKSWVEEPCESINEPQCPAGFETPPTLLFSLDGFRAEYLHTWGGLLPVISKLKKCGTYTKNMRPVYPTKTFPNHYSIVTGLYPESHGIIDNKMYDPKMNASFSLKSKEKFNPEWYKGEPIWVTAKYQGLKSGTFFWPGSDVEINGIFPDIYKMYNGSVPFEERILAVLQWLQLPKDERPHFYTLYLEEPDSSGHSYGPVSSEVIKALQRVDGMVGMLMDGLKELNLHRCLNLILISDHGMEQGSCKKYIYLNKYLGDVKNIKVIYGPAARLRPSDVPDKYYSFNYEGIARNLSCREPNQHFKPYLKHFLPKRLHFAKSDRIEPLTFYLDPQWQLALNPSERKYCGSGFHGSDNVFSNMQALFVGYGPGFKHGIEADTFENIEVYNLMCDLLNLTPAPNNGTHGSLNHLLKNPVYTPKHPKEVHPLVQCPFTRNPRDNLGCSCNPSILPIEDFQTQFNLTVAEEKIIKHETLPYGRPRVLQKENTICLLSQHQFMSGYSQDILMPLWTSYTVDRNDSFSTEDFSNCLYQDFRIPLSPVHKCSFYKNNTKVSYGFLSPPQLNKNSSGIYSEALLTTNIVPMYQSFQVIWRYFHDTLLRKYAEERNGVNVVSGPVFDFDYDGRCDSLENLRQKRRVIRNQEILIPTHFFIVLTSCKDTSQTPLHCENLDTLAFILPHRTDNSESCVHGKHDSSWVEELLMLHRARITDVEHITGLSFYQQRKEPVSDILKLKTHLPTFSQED
The assay is described as follows: ENPP1 assay with ATP substrate (Transcreener AMP2/GMP2 TR-FRET). Type of assay: biochemical. The following applies: 1 hour at room temperature. The essentials:
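Reaction ran 1 h at room temperature in pH 7.5 Tris with MgCl2, TCEP, Tween 20 and 1% DMSO. ATP was added as a 300 nM stock and enzyme as an 8.5 μM stock. After EDTA stop, AMP was read by TR-FRET tracer displacement. Percent inhibition used enzyme/no-enzyme controls; IC50 was fitted with a variable slope.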
(Time-resolved FRET reads energy transfer from a long-lived donor to a nearby acceptor.)

The target in assay [2] is T2, ENPP3 (Homo sapiens, UniProt O14638).
T2 sequence (O14638 1-875): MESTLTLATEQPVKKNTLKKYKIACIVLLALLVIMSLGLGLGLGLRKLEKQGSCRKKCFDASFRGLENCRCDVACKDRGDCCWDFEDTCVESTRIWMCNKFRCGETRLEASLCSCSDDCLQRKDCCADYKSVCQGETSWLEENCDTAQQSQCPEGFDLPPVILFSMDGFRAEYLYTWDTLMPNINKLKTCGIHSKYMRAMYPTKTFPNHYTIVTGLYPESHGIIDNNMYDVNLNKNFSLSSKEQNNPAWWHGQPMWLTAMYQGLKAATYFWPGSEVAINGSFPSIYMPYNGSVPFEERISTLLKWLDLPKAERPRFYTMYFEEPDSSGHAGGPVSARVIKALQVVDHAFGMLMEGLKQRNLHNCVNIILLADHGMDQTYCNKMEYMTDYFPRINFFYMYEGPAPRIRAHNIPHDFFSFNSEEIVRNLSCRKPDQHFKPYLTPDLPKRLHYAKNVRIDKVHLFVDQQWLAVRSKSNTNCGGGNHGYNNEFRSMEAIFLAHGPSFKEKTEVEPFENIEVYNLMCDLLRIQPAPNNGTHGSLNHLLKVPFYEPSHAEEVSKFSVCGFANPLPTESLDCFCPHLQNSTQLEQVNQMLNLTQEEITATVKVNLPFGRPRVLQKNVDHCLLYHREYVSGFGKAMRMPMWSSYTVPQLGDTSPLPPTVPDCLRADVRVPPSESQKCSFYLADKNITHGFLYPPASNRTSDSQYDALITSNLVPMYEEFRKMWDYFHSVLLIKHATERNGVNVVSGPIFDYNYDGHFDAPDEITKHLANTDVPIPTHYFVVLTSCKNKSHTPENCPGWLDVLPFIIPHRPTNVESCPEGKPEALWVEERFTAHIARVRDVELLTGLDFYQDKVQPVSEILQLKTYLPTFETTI
Nature of the assay: ENPP3 Km ATP assay. Type of assay: biochemical. As to conditions: ATP at Km.

As usually defined, the IC50 is the midpoint of a concentration-inhibition curve. On to `Cn1ncc2c(NCc3ccc(S(N)(=O)=O)cn3)cc(Cl)nc21` [Example 2.142, 6-(((6-Chloro-1-methyl-1H-pyrazolo[3,4-b]pyridin-4-yl)amino)methyl)pyridine-3-sulfonamide], for which the IC50 in assay [1] is below 0.1 µM; in assay [2], 0.1 to 1 µM.
The corresponding values for `Cn1ncc2c(NCc3ccc(S(N)(=O)=O)cc3F)cc(Cl)nc21` [Example 2.143, 4-(((6-Chloro-1-methyl-1H-pyrazolo[3,4-b]pyridin-4-yl)amino)methyl)-3-fluorobenzenesulfonamide] are below 0.1 µM and below 0.1 µM.
The matching figures for `CCNc1cc(NCc2ccc(S(N)(=O)=O)cc2F)c2cnn(C)c2n1` [Example 2.144, 4-(((6-(Ethylamino)-1-methyl-1H-pyrazolo[3,4-b]pyridin-4-yl)amino)methyl)-3-fluorobenzenesulfonamide]: 0.1 to 1 µM and 0.1 to 1 µM.
The matching figures for `Cc1csc2c(N3CCC(NCc4ccccc4)CC3)ncnc12` [Example 3.0, N-Benzyl-1-(7-methylthieno[3,2-d]pyrimidin-4-yl)piperidin-4-amine]: 0.1 to 1 µM and above 20 µM.
As for `Cc1csc2c(N3CCC(NCCCc4ccncc4)CC3)ncnc12` [Example 3.1, 1-(7-Methylthieno[3,2-d]pyrimidin-4-yl)-N-(3-(pyridin-4-yl)propyl)piperidin-4-amine], the IC50 in assay [1] was 0.1 to 1 µM; in assay [2], above 20 µM.
The matching figures for `Cc1csc2c(N3CCC(NCc4ccncc4)CC3)ncnc12` [Example 3.2, 1-(7-Methylthieno[3,2-d]pyrimidin-4-yl)-N-(pyridin-4-ylmethyl)piperidin-4-amine]: 1 to 20 µM and above 20 µM.
Take `Cc1csc2c(N3CCC(NCCCc4ccccn4)CC3)ncnc12` [Example 3.3, 1-(7-Methylthieno[3,2-d]pyrimidin-4-yl)-N-(3-(pyridin-2-yl)propyl)piperidin-4-amine]: the IC50 in assay [1] is 0.1 to 1 µM; in assay [2] it was above 20 µM.
For `Cc1ccc(CCCNC2CCN(c3ncnc4c(C)csc34)CC2)cc1` [Example 3.4, 1-(7-Methylthieno[3,2-d]pyrimidin-4-yl)-N-(3-(p-tolyl)propyl)piperidin-4-amine], the 50% inhibitory concentration (IC50) in assay [1] was 0.1 to 1 µM; in assay [2], above 20 µM.
In the case of `Cc1csc2c(N3CCC(NCCCc4ccc(F)cc4)CC3)ncnc12` [Example 3.5, N-(3-(4-Fluorophenyl)propyl)-1-(7-methylthieno[3,2-d]pyrimidin-4-yl)piperidin-4-amine], the IC50 in assay [1] is 0.1 to 1 µM; in assay [2], above 20 µM.
The matching figures for `Cc1csc2c(N3CCC(NCCCc4ccc(C#N)cc4)CC3)ncnc12` [Example 3.6, 4-(3-((1-(7-Methylthieno[3,2-d]pyrimidin-4-yl)piperidin-4-yl)amino)propyl)benzonitrile]: 0.1 to 1 µM and above 20 µM.
As to `Cc1csc2c(N3CCN(CCCCc4ccncc4)CC3)ncnc12` [Example 3.7, 7-Methyl-4-(4-(4-(pyridin-4-yl)butyl)piperazin-1-yl)thieno[3,2-d]pyrimidine], the IC50 in assay [1] was 1 to 20 µM; in assay [2], above 20 µM.
The corresponding values for `COc1cc(CCC(=O)NC2CCN(c3ncnc4c(C)csc34)CC2)ccn1` [Example 3.8] are 1 to 20 µM and above 20 µM.
Regarding `Cc1csc2c(N3CCC(NC(=O)CCc4ccnc(Br)c4)CC3)ncnc12` [Example 3.9], the IC50 is 1 to 20 µM in assay [1] and above 20 µM in assay [2].
The matching figures for `Cc1csc2c(N3CCC(NC(=O)/C=C/c4ccncc4Cl)CC3)ncnc12` [Example 3.11, (E)-3-(3-Chloropyridin-4-yl)-N-(1-(7-methylthieno[3,2-d]pyrimidin-4-yl)piperidin-4-yl)acrylamide]: 1 to 20 µM and above 20 µM.
The matching figures for `Cc1csc2c(N3CCC(NCCCc4cccc(C(F)(F)F)c4)CC3)ncnc12` [Example 3.12, 1-(7-Methylthieno[3,2-d]pyrimidin-4-yl)-N-(3-(3-(trifluoromethyl)phenyl)propyl)piperidin-4-amine]: 0.1 to 1 µM and above 20 µM.
